IC50 data for 35 molecules are collected here from patent US10519177B2, “Heterocyclic compounds and uses thereof” (Plexxikon Inc., priority 2013, dated 2019).

This assay has as its target BRD4-BD1 (44-164) (Homo sapiens (Human), UniProt O60885). In words: Alphascreen binding assay BRD4-BD1. The following applies: BRD4(1) H4; read-out: Biochemical activity (IC50 μM) BRD4(1) H4. In a few lines:
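AlphaScreen signal (nickel acceptor, streptavidin donor beads, 7.5 µg/ml each, read 30 min after addition) reports displacement of biotin-H4 K5/K8/K12/K16-acetyl peptide from His-BRD4 BD1 (44-164) or tandem BD12 (1-477).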
Background: In Alpha technology, singlet oxygen from a donor bead excites a nearby acceptor bead.

Molecules are shown by their SMILES.

In the case of `COCCn1cc(-c2cn(S(=O)(=O)C3CCCC3)c3cc(-c4c(C)noc4C)cnc23)cn1` [P-0151, 4-[1-cyclopentyl-sulfonyl-3-[1-(2-methoxyethyl)pyrazol-4-yl]pyrrolo[3,2-b]pyridin-6-yl]-3,5-dimethyl-isoxazole], the 50% inhibitory concentration (IC50) (as a rule, the point on the concentration scale where inhibition reaches its midpoint) is < 1 µM.

As for `CCCS(=O)(=O)n1cc(-c2cnn(CCOC)c2)c2ncc(-c3c(C)noc3C)cc21` [P-0152, 4-[3-[1-(2-methoxy-ethyl)pyrazol-4-yl]-1-propylsulfonyl-pyrrolo[3,2-b]pyridin-6-yl]-3,5-dimethyl-isoxazole], the IC50 is < 1 µM.

In the case of `Cc1noc(C)c1-c1cnc2c(-c3cnn(C4CCOC4)c3)cn(S(=O)(=O)C3CCCC3)c2c1` (centres unmarked) [P-0153, 4-[1-cyclopentyl-sulfonyl-3-(1-tetrahydrofuran-3-ylpyrazol-4-yl)pyrrolo[3,2-b]pyridin-6-yl]-3,5-dimethyl-isoxazole], the IC50 was < 1 µM.

As to `CCCS(=O)(=O)n1cc(-c2cnn(C3CCOC3)c2)c2ncc(-c3c(C)noc3C)cc21` (centres unmarked) [P-0154, 3,5-dimethyl-4-[1-propylsulfonyl-3-(1-tetrahydrofuran-3-ylpyrazol-4-yl)pyrrolo[3,2-b]pyridin-6-yl]isoxazole], the IC50 was < 1 µM.

Consider `Cc1noc(C)c1-c1cnc2c(C#CCO)cn(S(=O)(=O)c3ccccc3)c2c1` [P-0155, 3-[1-(benzenesulfonyl)-6-(3,5-dimethylisoxazol-4-yl)pyrrolo[3,2-b]pyridin-3-yl]prop-2-yn-1-ol], for which the IC50 was < 1 µM.

As to `Cc1noc(C)c1-c1cnc2c(C#CCO)cn(S(=O)(=O)C3CCCC3)c2c1` [P-0156, 3-[1-cyclopentylsulfonyl-6-(3,5-dimethylisoxazol-4-yl)pyrrolo[3,2-b]pyridin-3-yl]prop-2-yn-1-ol], the IC50 was < 1 µM.

Turning to `Cc1noc(C)c1-c1cnc2c(C#CCF)cn(S(=O)(=O)C3CCCC3)c2c1` [P-0158, 4-[1-cyclopentylsulfonyl-3-(3-fluoroprop-1-ynyl)pyrrolo[3,2-b]pyridin-6-yl]-3,5-dimethyl-isoxazole], the IC50 was < 1 µM.

Take `Cc1noc(C)c1-c1cnc2ccn(C(C)c3ccccc3)c2c1` (centres unmarked) [P-0159, 3,5-dimethyl-4-[1-(1-phenylethyl)pyrrolo[3,2-b]pyridin-6-yl]isoxazole]: the IC50 was < 1 µM.

Take `C=CCn1cc(-c2cn(Cc3ccccc3)c3cc(-c4c(C)noc4C)cnc23)cn1` [P-0160, 4-[3-(1-allylpyrazol-4-yl)-1-benzyl-pyrrolo[3,2-b]pyridin-6-yl]-3,5-dimethyl-isoxazole]: the IC50 was < 1 µM.

For the molecule `Cc1noc(C)c1-c1cnc2c(-c3cnn(C)c3)cn(C(C)c3ccccc3)c2c1` (centres unmarked) [P-0161, 3,5-dimethyl-4-[3-(1-methylpyrazol-4-yl)-1-(1-phenylethyl)pyrrolo[3,2-b]pyridin-6-yl]isoxazole], the half-inhibitory concentration (IC50) was < 1 µM.

With `Cc1noc(C)c1-c1cnc2ccn(Cc3ccccc3)c2c1` [P-0162, 4-(1-benzylpyrrolo[3,2-b]pyridin-6-yl)-3,5-dimethyl-isoxazole], the IC50 was < 1 µM.

Turning to `Cc1noc(C)c1-c1cnc2c(-c3cn[nH]c3)cn(S(=O)(=O)c3ccccc3)c2c1` [P-0163, 4-[1-(benzenesulfonyl)-3-(1H-pyrazol-4-yl)pyrrolo[3,2-b]pyridin-6-yl]-3,5-dimethyl-isoxazole], the IC50 was < 1 µM.

As for `Cc1noc(C)c1-c1cnc2[nH]cc(P(C)(=O)c3ccccc3)c2c1` (centres unmarked) [P-0165, 3,5-dimethyl-4-[3-[methyl(phenyl)phosphoryl]-1H-pyrrolo[2,3-b]pyridin-5-yl]isoxazole], the IC50 was < 1 µM.

For the molecule `Cc1noc(C)c1-c1cnc2[nH]cc(P(=O)(c3ccccc3)c3ccccc3)c2c1` [P-0166, 4-(3-diphenylphosphoryl-1H-pyrrolo[2,3-b]pyridin-5-yl)-3,5-dimethyl-isoxazole], the IC50 was < 1 µM.

Regarding `Cc1noc(C)c1-c1cnc2c(-c3cn[nH]c3)cn(S(=O)(=O)C3CCCC3)c2c1` [P-0167, 4-[1-cyclopentylsulfonyl-3-(1H-pyrazol-4-yl)pyrrolo[3,2-b]pyridin-6-yl]-3,5-dimethyl-isoxazole], the IC50 is < 1 µM.

Regarding `Cc1noc(C)c1-c1cnc2c(-c3cnn(C4CCCCO4)c3)cn(S(=O)(=O)c3ccccc3)c2c1` (centres unmarked) [P-0168, 4-[1-(benzenesulfonyl)-3-(1-tetrahydropyran-2-ylpyrazol-4-yl)pyrrolo[3,2-b]pyridin-6-yl]-3,5-dimethyl-isoxazole], the IC50 was < 1 µM.

On to `Cc1nc(Cn2cc(-c3cnn(C)c3)c3ncc(-c4c(C)noc4C)cc32)cs1` [P-0170, 3,5-dimethyl-4-[3-(1-methylpyrazol-4-yl)-1-[(2-methylthiazol-4-yl)methyl]pyrrolo[3,2-b]pyridin-6-yl]isoxazole], for which the IC50 is < 1 µM.

With `Cc1noc(C)c1-c1cnc2c(-c3cnn(C)c3)cn(Cc3cscn3)c2c1` [P-0171, 3,5-dimethyl-4-[3-(1-methylpyrazol-4-yl)-1-(thiazol-4-ylmethyl)pyrrolo[3,2-b]pyridin-6-yl]isoxazole], the IC50 was < 1 µM.

As to `Cc1noc(C)c1-c1cnc2c(-c3cnn(C)c3)cn(Cc3ccccc3F)c2c1` [P-0172, 4-[1-[(2-fluorophenyl)methyl]-3-(1-methylpyrazol-4-yl)pyrrolo[3,2-b]pyridin-6-yl]-3,5-dimethyl-isoxazole], the IC50 was < 1 µM.

As for `Cc1noc(C)c1-c1cnc2c(-c3cnn(C)c3)cn(Cc3c(F)cccc3F)c2c1` [P-0173, 4-[1-[(2,6-difluorophenyl)methyl]-3-(1-methylpyrazol-4-yl)pyrrolo[3,2-b]pyridin-6-yl]-3,5-dimethyl-isoxazole], the half-inhibitory concentration (IC50) was < 1 µM.

In the case of `Cc1noc(C)c1-c1cnc2c(-c3cnn(C(F)F)c3)cn(Cc3ccccc3F)c2c1` [P-0176, 4-[3-[1-(difluoromethyl)pyrazol-4-yl]-1-[(2-fluorophenyl)methyl]pyrrolo[3,2-b]pyridin-6-yl]-3,5-dimethyl-isoxazole], the IC50 was < 1 µM.

For `Cc1noc(C)c1-c1cnc2c(-c3cnn(C(F)F)c3)cn(C(C)c3ccccc3)c2c1` (centres unmarked) [P-0177, 4-[3-[1-(difluoromethyl)pyrazol-4-yl]-1-(1-phenylethyl)pyrrolo[3,2-b]pyridin-6-yl]-3,5-dimethyl-isoxazole], the IC50 is < 1 µM.

Regarding `Cc1noc(C)c1-c1cnc2c(c1)c(Sc1ccccc1)cn2-c1cnn(C)c1` [P-0184, 3,5-dimethyl-4-[1-(1-methylpyrazol-4-yl)-3-phenylsulfanyl-pyrrolo[2,3-b]pyridin-5-yl]isoxazole], the IC50 is < 1 µM.

Consider `Cc1noc(C)c1-c1cnc2c(c1)c(S(=O)(=O)c1ccccc1)cn2-c1cnn(C)c1` [P-0185, 4-[3-(benzenesulfonyl)-1-(1-methylpyrazol-4-yl)pyrrolo[2,3-b]pyridin-5-yl]-3,5-dimethyl-isoxazole], for which the IC50 is < 1 µM.

As to `CCOC(=O)C(c1ccccc1)n1cc(-c2cnn(C)c2)c2ncc(-c3c(C)noc3C)cc21` (centres unmarked) [P-0186, ethyl 2-[6-(3,5-dimethylisoxazol-4-yl)-3-(1-methylpyrazol-4-yl)pyrrolo[3,2-b]pyridin-1-yl]-2-phenyl-acetate], the IC50 is < 1 µM.

As for `Cc1noc(C)c1-c1cnc2c(-c3cnn(C)c3)cn(C(CF)c3ccccc3)c2c1` (centres unmarked) [P-0187, 4-[1-(2-fluoro-1-phenyl-ethyl)-3-(1-methylpyrazol-4-yl)pyrrolo[3,2-b]pyridin-6-yl]-3,5-dimethyl-isoxazole], the IC50 was < 1 µM.

`Cc1noc(C)c1-c1cnc2c(-c3cnn(C)c3)cn(Cc3ccccc3C(F)(F)F)c2c1` [P-0188, 3,5-dimethyl-4-[3-(1-methylpyrazol-4-yl)-1-[[2-(trifluoromethyl)phenyl]methyl]pyrrolo[3,2-b]pyridin-6-yl]isoxazole]: the concentration for half-maximal inhibition (IC50) is < 1 µM.

Turning to `Cc1noc(C)c1-c1cnc2c(-c3cnn(C)c3)cn(Cc3c(Cl)cccc3Cl)c2c1` [P-0189, 4-[1-[(2,6-dichlorophenyl)methyl]-3-(1-methylpyrazol-4-yl)pyrrolo[3,2-b]pyridin-6-yl]-3,5-dimethyl-isoxazole], the IC50 was < 1 µM.

On to `Cc1noc(C)c1-c1cnc2c(-c3cnn(C)c3)cn(Cc3cc(F)ccc3Cl)c2c1` [P-0190, 4-[1-[(2-chloro-5-fluoro-phenyl)methyl]-3-(1-methylpyrazol-4-yl)pyrrolo[3,2-b]pyridin-6-yl]-3,5-dimethyl-isoxazole], for which the IC50 was < 1 µM.

Turning to `Cc1noc(C)c1-c1cnc2c(-c3cnn(C)c3)cn(C(CO)c3ccccc3)c2c1` (centres unmarked) [P-0192, 2-[6-(3,5-dimethylisoxazol-4-yl)-3-(1-methylpyrazol-4-yl)pyrrolo[3,2-b]pyridin-1-yl]-2-phenyl-ethanol], the IC50 was < 1 µM.

Consider `Cc1noc(C)c1-c1cnc2c(-c3cnn(C)c3)cn(Cc3ccccc3Cl)c2c1` [P-0193, 4-[1-[(2-chlorophenyl)methyl]-3-(1-methylpyrazol-4-yl)pyrrolo[3,2-b]pyridin-6-yl]-3,5-dimethyl-isoxazole], for which the IC50 is < 1 µM.

As to `Cc1noc(C)c1-c1cnc2c(-c3cnn(C)c3)cn(Cc3ccccc3OC(F)(F)F)c2c1` [P-0194, 3,5-dimethyl-4-[3-(1-methylpyrazol-4-yl)-1-[[2-(trifluoromethoxy)phenyl]methyl]pyrrolo[3,2-b]pyridin-6-yl]isoxazole], the IC50 was < 1 µM.

As to `Cc1noc(C)c1-c1cnc2c(-c3cnn(C)c3)cn(Cc3cccnc3)c2c1` [P-0195, 3,5-dimethyl-4-[3-(1-methylpyrazol-4-yl)-1-(3-pyridylmethyl)pyrrolo[3,2-b]pyridin-6-yl]isoxazole], the IC50 is < 1 µM.

With `Cc1noc(C)c1-c1cnc2ccn(C(CC#N)C3CCCC3)c2c1` (centres unmarked) [P-0196, 3-cyclopentyl-3-[6-(3,5-dimethylisoxazol-4-yl)pyrrolo[3,2-b]pyridin-1-yl]propanenitrile], the IC50 is < 1 µM.

Regarding `Cc1noc(C)c1-c1cnc2c(-c3cnn(C)c3)cn(C(CC#N)C3CCCC3)c2c1` (centres unmarked) [P-0197, 3-cyclopentyl-3-[6-(3,5-dimethylisoxazol-4-yl)-3-(1-methylpyrazol-4-yl)pyrrolo[3,2-b]pyridin-1-yl]propanenitrile], the IC50 was < 1 µM.
